US20240082286A1, “COMBINATION THERAPIES FOR TREATMENT OF T-CELL LYMPHOMAS” (Otsuka Pharmaceutical Co., Ltd., priority 2022, published 2024)

How the values were obtained:
RIPK3 gene promoter = assay: Methylation status of RIPK3 gene by pyrosequencing (EpigenDX); assay type: cell-based, human; conditions: H9, Karpas-299, Sup-M2, Sup-T1 cell lines; 0.01, 0.1, 1 μM decitabine for 4 days; FIG. 3 B and C
Description: The DNA of human H9, Karpas-299, Sup-M2 (from DSMZ), and Sup-T1 (from ECACC) cell lines were sequenced to identify methylation status of the RIPK3 gene by pyrosequencing (EpigenDX). […] These cell lines were treated with 0.01, 0.1, and 1 μM decitabine (DAC) for 4 days, and DNA of the cells were sequenced to identify methylation status of the RIPK3 gene by pyrosequencing (EpigenDX).

DNMT1 = assay: Western blotting of BW5147.G.1.4 lysates, DNMT1; assay type: cell-based, mouse; conditions: 48 hours, as the concentration of decitabine increased, FIG. 8
Description: After 48 hours, the cell was lysated and interferon signaling and PD markers were analyzed by Western blotting, as shown in FIG. 8.

LINE-1 = assay: Methylation level of LINE-1 after decitabine treatment; assay type: cell-based, human; conditions: 0.01, 0.1, 1 μM decitabine for 4 days; FIG. 3 D
RIPK3 [1] = assay: RIPK3 western blotting of KARPAS-299 xenograft cell lysates; assay type: in vivo, mouse; conditions: five days treatment, FIG. 13
RIPK3 [2] = assay: RIPK3 expression by western blot after decitabine treatment, CT26 cells; assay type: cell-based, mouse; conditions: 0.01, 0.1, 1 μM decitabine for 2 days, FIG. 2
Description: Two types of mouse cell lines (BW5147.G.1.4, a T cell lymphoma from DSMZ (Braunschweig, Germany) and CT26) were treated with 0.01, 0.1, 1 μM or no decitabine (DAC) for 2 days.

H9 cells = assay: IFNγ release, electrochemiluminescence immunoassay (Meso Scale Discovery); assay type: cell-based, human; conditions: decitabine alone 0.001-10 μM for 48 hours; FIG. 4
Description: Human T-cell lymphoma (H9) cell line was treated with decitabine (DAC) (0.001, 0.003, 0.01, 0.03, 0.1, 0.3, 1, 3 and 10 μM) for 48 hours, and the release of IFNγ was measured an electrochemiluminescence immunoassay (Meso Scale Discovery). […] Thus, the treatment by decitabine will potentially result in improved response rate to the tolinapant treatment.

RIPK3 [3] = assay: RIPK3 expression by western blot after decitabine treatment, Karpas-299 cells; assay type: cell-based, human; conditions: 0.01, 0.1, 1 μM decitabine for 4 days, FIG. 2
[4] = test system: KARPAS-299 xenograft mouse model; assay: Gene expression changes in KARPAS-299 xenografts; assay type: in vivo; conditions: treated for five days, FIG. 12
Description: KARPAS-299 xenograft mouse model was prepared by injecting KARPAS-299 cells. The mice bearing the KARPAS-299 xenografts were treated with decitabine (DAC) and/or tolinapant for five days. The tumor cells were collected and analyzed for gene expression changes (FIG. 12).

CT26 cells = assay: Lytic cell death by real-time microscopy (IncuCyte) in CT26 control and RIPK3 re-expressed CT26 cells; assay type: cell-based, mouse; conditions: 1 μM tolinapant; RIPK3 re-expressed CT26 cells versus CT26 control cells; FIG. 1B
Description: CRISPR activation (CRISPRa) was used to re-express RIPK3 in the CT26 line (from ATCC) (FIG. 1A). […] The lytic cell death upon treatment of tolinapant was measured for the CT26 control cells and the RIPK3 re-expressed CT26 cells, by real-time microscopy (IncuCyte) assays (FIG. 1B).

clAP1 = assay: Western blotting of BW5147.G.1.4 lysates, clAP1; assay type: cell-based, mouse; conditions: 48 hours, when tolinapant was added to decitabine, FIG. 8
Description: After 48 hours, the cell was lysated and interferon signaling and PD markers were analyzed by Western blotting, as shown in FIG. 8. From the western blot, it was confirmed that the expression of DNMT1 was reduced as the concentration of decitabine increased, and the expression of clAP1 was suppressed when tolinapant was added.

Compound: Nc1ncn([C@H]2C[C@H](O)[C@@H](CO)O2)c(=O)n1 [decitabine, 5-aza-2′-deoxycytidine]
- methylation of RIPK3 gene promoter (RIPK3 gene promoter): demethylation of RIPK3 gene promoter
- expression of DNMT1 (DNMT1): reduced
- methylation of LINE-1 (LINE-1): demethylation of LINE-1
- RIPK3 re-expression by western blotting (RIPK3 [1]): re-expression of RIPK3 was also confirmed
- RIPK3 expression (RIPK3 [2]): RIPK3 expression was detected
- IFNγ released from H9 cells (H9 cells): increased
- RIPK3 expression (RIPK3 [3]): RIPK3 expression was detected
- gene expression changes in tumor cells [4]: upregulation of interferons, and other cytokines/chemokines and cancer testis antigens

Compound: C[C@@H]1CN(CC(=O)N2CC(C)(C)c3nc(CO)c(Cc4ccc(F)cc4)cc32)[C@@H](CN2CCOC[C@H]2C)CN1 [tolinapant, 1-(6-(4-fluorobenzyl)-5-(hydroxymethyl)-3,3-dimethyl-2,3-dihydro-1H-pyrrolo[3,2-b]pyridin-1-yl)-2-((2R,5R)-5-methyl-2-(((R)-3-methylmorpholino)methyl)piperazin-1-yl)ethan-1-one]
- lytic cell death upon treatment of tolinapant (CT26 cells): higher lytic cell death
- expression of clAP1 (clAP1): suppressed
